Measurements as given in the supplement of paper PMC13380429.

Tests used:
Conditions in all cases: 72 h
Caco-2 [1] = test: cell viability relative to DMSO; higher = less toxic
Calu-3 [2] = test: as above
HepG2 [3] = test: as above
U2OS [4] = test: as above
Vero E6 [5] = test: as above
Caco-2 [6] = test: relative viability EC50 (midpoint between 100% and the lowest measured viability); higher = less toxic
Calu-3 [7] = test: as above
HepG2 [8] = test: as above
U2OS [9] = test: as above
Vero E6 [10] = test: as above
Caco-2 [11] = test: drug sensitivity score (DSS) for viability; higher = more toxic; extreme values may be limits of the assay
Calu-3 [12] = test: as above
HepG2 [13] = test: as above
U2OS [14] = test: as above
Vero E6 [15] = test: as above

Row | SMILES | cell viability (Caco-2 [1]; 1 nM) [%] | cell viability (Caco-2 [1]; 10 nM) [%] | cell viability (Caco-2 [1]; 100 nM) [%] | cell viability (Caco-2 [1]; 1000 nM) [%] | cell viability (Caco-2 [1]; 10000 nM) [%] | cell viability (Calu-3 [2]; 1 nM) [%] | cell viability (Calu-3 [2]; 10 nM) [%] | cell viability (Calu-3 [2]; 100 nM) [%] | cell viability (Calu-3 [2]; 1000 nM) [%] | cell viability (Calu-3 [2]; 10000 nM) [%] | cell viability (HepG2 [3]; 1 nM) [%] | cell viability (HepG2 [3]; 10 nM) [%] | cell viability (HepG2 [3]; 100 nM) [%] | cell viability (HepG2 [3]; 1000 nM) [%] | cell viability (HepG2 [3]; 10000 nM) [%] | cell viability (U2OS [4]; 1 nM) [%] | cell viability (U2OS [4]; 10 nM) [%] | cell viability (U2OS [4]; 100 nM) [%] | cell viability (U2OS [4]; 1000 nM) [%] | cell viability (U2OS [4]; 10000 nM) [%] | cell viability (Vero E6 [5]; 1 nM) [%] | cell viability (Vero E6 [5]; 10 nM) [%] | cell viability (Vero E6 [5]; 100 nM) [%] | cell viability (Vero E6 [5]; 1000 nM) [%] | cell viability (Vero E6 [5]; 10000 nM) [%] | relative viability EC50 (Caco-2 [6]) [µM] | relative viability EC50 (Calu-3 [7]) [µM] | relative viability EC50 (HepG2 [8]) [µM] | relative viability EC50 (U2OS [9]) [µM] | relative viability EC50 (Vero E6 [10]) [µM] | drug sensitivity score (Caco-2 [11]) | drug sensitivity score (Calu-3 [12]) | drug sensitivity score (HepG2 [13]) | drug sensitivity score (U2OS [14]) | drug sensitivity score (Vero E6 [15])
1 | Cc1c(Cl)c(C)[n+]([O-])c(Cl)c1-c1noc(-c2cc(O)c(O)c([N+](=O)[O-])c2)n1 [opicapone] | 87.3 | 99 | 93.8 | 111 | 95.4 | 84.3 | 106 | 95.3 | 102 | 105 | 108 | 103 | 110 | 88.1 | 97.9 | 100 | 104 | 94.4 | 102 | 104 | 97.3 | 96.6 | 96.3 | 98.6 | 95.8 | > 10 | > 10 | > 10 | > 10 | > 10 | 0 | 0 | 0.4 | 0 | 0
2 | CC(C)C[C@H](NC(=O)N1CCCCCC1)C(=O)N[C@H](Cc1cn(C)c2ccccc12)C(=O)N[C@H](Cc1ccccn1)C(=O)O | 100 | 82.5 | 92.1 | 99.9 | 91.2 | 109 | 95.2 | 97.9 | 106 | 112 | 94.5 | 111 | 99 | 101 | 89.8 | 99.1 | 94.4 | 96.4 | 99 | 97.9 | 95 | 97 | 100 | 98.9 | 98.5 | > 10 | > 10 | > 10 | > 10 | > 10 | 0 | 0 | 0 | 0 | 0
3 | CC1(C)CC(=O)c2c(C(F)(F)F)nn(-c3ccc(C(N)=O)c(N[C@H]4CC[C@H](OC(=O)CN)CC4)c3)c2C1 [SNX-5422] | 90.2 | 95.8 | 85.4 | 37.3 | 35.2 | 85.3 | 93.9 | 80.9 | 40.5 | 38.7 | 101 | 92.9 | 15.8 | 0.9 | 1.9 | 92 | 105 | 68.9 | 3.4 | 3.4 | 95.6 | 94 | 97.5 | 47.3 | 25.8 | 0.189 | 0.161 | 0.0395 | 0.135 | 0.612 | 13.5 | 13.1 | 28.8 | 21.9 | 10.6
4 | NCCc1c[nH]cn1 [histamine] | 90.8 | 105 | 101 | 110 | 104 | 99.4 | 100 | 101 | 95.7 | 109 | 100 | 102 | 103 | 100 | 97.5 | 94.9 | 99.7 | 97.5 | 103 | 102 | 99.4 | 98.2 | 93.5 | 97.5 | 104 | > 10 | > 10 | > 10 | > 10 | > 10 | 0 | 0 | 0 | 0 | 0
5 | CCCCN1CCCC1CNC(=O)c1cc(C#N)c2ccccc2c1OC (stereo not given) [nafadotride] | 98.8 | 97.6 | 97.4 | 104 | 102 | 102 | 106 | 87.2 | 105 | 97.1 | 104 | 103 | 105 | 97.5 | 96.7 | 98.3 | 101 | 104 | 101 | 92.2 | 102 | 96.8 | 105 | 100 | 92.5 | > 10 | > 10 | > 10 | > 10 | > 10 | 0 | 0 | 0 | 0 | 0
6 | CC(=O)N[C@@H](CSC/C=C(\C)CC/C=C(\C)CCC=C(C)C)C(=O)O [acetyl-farnesyl-cysteine] | 92.9 | 98.1 | 100 | 101 | 108 | 108 | 84.9 | 86.6 | 99.9 | 101 | 90.9 | 92.5 | 99.8 | 102 | 105 | 95.7 | 96.9 | 101 | 99 | 101 | 93.9 | 107 | 93 | 99.6 | 101 | > 10 | > 10 | > 10 | > 10 | > 10 | 0 | 0 | 0 | 0 | 0
7 | Cc1cccc(C)c1NC(=O)CN1CCCC1=O [nefiracetam] | 98.3 | 91.2 | 105 | 101 | 91.2 | 104 | 104 | 97.2 | 108 | 98.7 | 102 | 104 | 96.9 | 102 | 100 | 96.5 | 93.3 | 102 | 97.2 | 102 | 94.5 | 106 | 92.6 | 102 | 111 | > 10 | > 10 | > 10 | > 10 | > 10 | 0 | 0 | 0 | 0 | 0
8 | CC1(C)Oc2ccc(C#N)cc2[C@@H](N2CCCC2=O)[C@@H]1O [levcromakalim] | 96.5 | 99.7 | 99.1 | 88.5 | 99.6 | 85.7 | 105 | 91.8 | 104 | 102 | 109 | 105 | 98 | 101 | 96.2 | 103 | 102 | 99.4 | 98 | 101 | 92.1 | 96.6 | 97.1 | 97.2 | 93.7 | > 10 | > 10 | > 10 | > 10 | > 10 | 0 | 0 | 0 | 0 | 0
9 | COc1cc2c(c(OC)c1OC)-c1c(cc3c(c1OC)OCO3)C[C@H](C)[C@@](C)(O)C2 [schisandrol-B] | 104 | 92 | 95.9 | 95.9 | 97.4 | 100 | 92.8 | 101 | 105 | 96.5 | 100 | 114 | 93.3 | 98.4 | 100 | 101 | 99.9 | 105 | 103 | 97.9 | 102 | 102 | 102 | 100 | 97.8 | > 10 | > 10 | > 10 | > 10 | > 10 | 0 | 0 | 0 | 0 | 0
10 | C[n+]1cccc(C(=O)[O-])c1 [trigonelline] | 96.8 | 83.1 | 92.9 | 94 | 99.3 | 102 | 103 | 105 | 103 | 95.7 | 89.2 | 95.9 | 91.8 | 82.9 | 90.5 | 104 | 95.5 | 96.5 | 101 | 97.4 | 99.6 | 82.5 | 106 | 102 | 76.6 | > 10 | > 10 | > 10 | > 10 | > 10 | 0 | 0 | 0 | 0 | 0.7
11 | CS(=O)(=O)c1ccc(-c2cnc(NCc3ccco3)n3cnnc23)cc1 [EED226] | 95.7 | 82.8 | 104 | 88.1 | 103 | 102 | 102 | 94.4 | 111 | 111 | 99.8 | 92.8 | 94.6 | 102 | 87 | 98.3 | 97.1 | 98.5 | 97.4 | 98 | 107 | 100 | 103 | 105 | 98 | > 10 | > 10 | > 10 | > 10 | > 10 | 0 | 0 | 0.1 | 0 | 0
12 | CC[C@@H](c1ccc(F)c(F)c1)n1c(C(=O)OC)c(-c2ccno2)[nH]c1=S | 97.9 | 98.3 | 98.4 | 96.9 | 94.2 | 96.1 | 95.1 | 98.6 | 91.3 | 99.8 | 115 | 98.8 | 93.3 | 99.7 | 90.4 | 99.7 | 94 | 98.9 | 96 | 95.7 | 103 | 95.4 | 97.8 | 99.9 | 96.7 | > 10 | > 10 | > 10 | > 10 | > 10 | 0 | 0 | 0 | 0 | 0
13 | CN(C)C(=O)[C@H](O)[C@H](Cc1ccccc1)NC(=O)c1cc2cc(Cl)ccc2[nH]1 | 87.2 | 97 | 96.2 | 106 | 96.8 | 96.2 | 104 | 97 | 102 | 102 | 103 | 96 | 106 | 105 | 106 | 95.4 | 102 | 90.5 | 95.3 | 97 | 108 | 94.6 | 102 | 98.3 | 106 | > 10 | > 10 | > 10 | > 10 | > 10 | 0 | 0 | 0 | 0 | 0
14 | O=C(/C=C/c1ccc(CN(CCO)CCc2c[nH]c3ccccc23)cc1)NO [dacinostat] | 96.5 | 101 | 38.7 | 0.3 | 0.8 | 98.7 | 90.1 | 56.5 | 11.3 | 5.5 | 104 | 82 | 26.1 | -0.4 | -0.4 | 98.1 | 101 | 66.4 | 1.3 | 0.5 | 108 | 103 | 47.8 | -0.4 | -0.3 | 0.083 | 0.109 | 0.0395 | 0.131 | 0.0966 | 25.2 | 21.5 | 28.4 | 22.6 | 24.4
